Where two headings read alike, the source gives them in different places.

The values that follow come from patent US11839610B2 (priority 2022, dated 2023).

For series [1], the system named is Omicron S protein pseudovirus (nCoV-S-Luc-B.1.1.529) in ACE2-293T cells. Kind of series: microbe, parasite or virus in culture. The class given is cell-based. The conditions noted are these: read-out: 50% inhibitory concentrations (IC50) for viral infection, Omicron.
Series [2] deals with ACE2-293T cells.
Series [3] has as its system Delta S protein pseudovirus (nCoV-S-Luc-B.1.617.2) in ACE2-293T cells. The experiment in a line: microbe, parasite or virus in culture. The conditions noted are these: for Levels of viral infection, Delta, Ave.: luciferase activity, Control group as 100%; for IC50: read-out: 50% inhibitory concentrations (IC50) for viral infection, Delta, alkaloid compounds, n = 3. It is filed as cell-based.

With `COc1cc2c3cc1Oc1c4c(cc5c1[C@H](Cc1ccc(cc1)Oc1cc(ccc1O)C[C@H]3N(C)CC2)N(C)CC5)OCO4` [Cepharanoline], the values for the IC50 in series [1] and in series [3] were 1310 ± 70 nM and 1640 ± 180 nM, respectively. In addition, in series [2], the “Cell Viability (%)” value worked out at 97.24 ± 0.87%. The “cytotoxic to the ACE2-293T cells (in words)” value in series [2] is reported as “caused no damages”. Besides, the “Levels of viral infection, Delta, Ave.” value in series [3] (Conc. 0.1 μM) was 89.65%; in series [3] (Conc. 1 μM), 64.01%; in series [3] (Conc. 10 μM) it was −3.64%.

Turning to `COc1ccc2cc1Oc1ccc(cc1)C[C@H]1c3cc(c(OC)cc3CCN1C)Oc1c(O)c(OC)cc3c1[C@H](C2)N(C)CC3` [Fangchinoline], the figures for the IC50 in series [1] (Pseudovirus) and in series [3] (Pseudovirus) were 1440 ± 60 nM and 1820 ± 20 nM, respectively. Also, the “cytotoxic to the ACE2-293T cells (in words)” value in series [2] is listed as “caused no damages”. Further, in series [2] (human), the “Cell Viability (%)” value worked out at 95.56 ± 2.82%. Moreover, the figures for the “Levels of viral infection, Delta, Ave.” value in series [3] (Conc. 1 μM), in series [3] (Conc. 5 μM) and in series [3] (Conc. 10 μM) were 64.54%, 27.89% and 7.13%, respectively.

In the case of Cycleanine, the IC50 in series [1] came to 530 ± 30 nM; in series [3], 2210 ± 500 nM. Moreover, the “Levels of viral infection, Delta, Ave.” value in series [3] (Conc. 0.1 μM) is on record as 118.65%; in series [3] (Conc. 1 μM), 88.48%; in series [3] (Conc. 10 μM), −3.84%.
